What follows are molecules tested against CDK2/Cyclin E1 (Homo sapiens (Human), UniProt P24941) (assay: CDK2/Cyclin E1 HTRF enzyme activity assay (Example A)). Details: 1 mM ATP.
Assay type: biochemical
Description: Assays were conducted in white 384-well polystyrene plates in a final reaction volume of 8 μL. […] HTRF signals were read after 1 hour at room temperature on a PHERAstar FS plate reader (BMG Labtech). Data was analyzed with IDBS XLFit and GraphPad Prism 5.0 software using a three or four parameter dose response curve to determine IC50 for each compound.

IC50, ≤ 50 nM:
Cc1ncn(C)c1-c1ccc(-n2cnc(-c3nc(NC4CCN(S(C)(=O)=O)CC4)ncc3C(F)(F)F)c2)c(Cl)c1 [Example 123, 4-(1-(2-Chloro-4-(1,4-dimethyl-1H-imidazol-5-yl)phenyl)-1H-imidazol-4-yl)-N-(1-(methylsulfonyl)-piperidin-4-yl)-5-(trifluoromethyl)-pyrimidin-2-amine]
Cc1nc(-c2nc(NC3CCN(S(C)(=O)=O)CC3)ncc2C(F)(F)F)cn1-c1ccc(C2CCN(C)CC2)cc1F [Example 161, 4-(1-(2-Fluoro-4-(1-methylpiperidin-4-yl)phenyl)-2-methyl-1H-imidazol-4-yl)-N-(1-(methyl-sulfonyl)piperidin-4-yl)-5-(trifluoro-methyl)pyrimidin-2-amine]
CN1CC(c2ccc(-n3cnc(-c4nc(NC5CCN(S(C)(=O)=O)CC5)ncc4C(F)(F)F)c3)c(Cl)c2)C1 [Example 440, 4-(1-(2-Chloro-4-(1-methylazetidin-3-yl)phenyl)-1H-imidazol-4-yl)-N-(1-(methylsulfonyl)piperidin-4-yl)-5-(trifluoromethyl)pyrimidin-2-amine]
CN1CCN(c2ccc(-n3cnc(-c4nc(NC5CCN(S(C)(=O)=O)CC5)ncc4C(F)(F)F)c3)c(Cl)c2)CC1=O [Example 142, 4-(3-Chloro-4-(4-(2-((1-(methyl-sulfonyl)piperidin-4-yl)amino)-5-(trifluoromethyl)-pyrimidin-4-yl)-1H-imidazol-1-yl)phenyl)-1-methylpiperazin-2-one]
Cn1nccc1-c1ccc(-n2cnc(-c3nc(NC4CCN(S(C)(=O)=O)CC4)ncc3C(F)(F)F)c2)c(Cl)c1 [Example 119, 4-(1-(2-Chloro-4-(1-methyl-1H-pyrazol-5-yl)phenyl)-1H-imidazol-4-yl)-N-(1-(methylsulfonyl)piperidin-4-yl)-5-(trifluoromethyl)pyrimidin-2-amine]
COc1nccc(-n2cnc(-c3nc(NC4CCN(S(C)(=O)=O)CC4)ncc3C(F)(F)F)c2)c1C [Example 312, 4-(1-(2-Methoxy-3-methylpyridin-4-yl)-1H-imidazol-4-yl)-N-(1-(methylsulfonyl)piperidin-4-yl)-5-(trifluoromethyl)pyrimidin-2-amine]
Cn1cc(S(=O)(=O)N2CCC(Nc3ncc(C(F)(F)F)c(-c4cn(-c5cccnc5C(F)F)cn4)n3)CC2)cn1 [Example 88, 4-(1-(2-(Difluoromethyl)pyridin-3-yl)-1H-imidazol-4-yl)-N-(1-((1-methyl-1H-pyrazol-4-yl)sulfonyl)piperidin-4-yl)-5-(trifluoromethyl) pyrimidin-2-amine]
CS(=O)(=O)N1CCC(Nc2ncc(C(F)(F)F)c(-c3cn(-c4ccc(N5CC[C@H](O)C5)cc4Cl)cn3)n2)CC1 [Example 139, (S)-1-(3-Chloro-4-(4-(2-((1-(methyl-sulfonyl)piperidin-4-yl)amino)-5-(trifluoromethyl)-pyrimidin-4-yl)-1H-imidazol-1-yl)-phenyl)pyrrolidin-3-ol]
CS(=O)(=O)N1CCC(Nc2ncc(C(F)(F)F)c(-c3cn(-c4cccc(CNC5CCOC5)c4Cl)cn3)n2)CC1 (stereo not shown) [Example 367, 4-(1-(2-Chloro-3-(((tetrahydrofuran-3-yl)amino)methyl)phenyl)-1H-imidazol-4-yl)-N-(1-(methylsulfonyl)piperidin-4-yl)-5-(trifluoromethyl)pyrimi-din-2-amine]
Cc1ccc(-n2cnc(-c3nc(N[C@H]4CCN(S(C)(=O)=O)C[C@H]4F)ncc3C(F)(F)F)c2)c(C(F)(F)F)n1 [Example 46, N-((3R,4S)-3-Fluoro-1-(methylsulfonyl)piperidin-4-yl)-4-(1-(6-methyl-2-(trifluoromethyl)pyridin-3-yl)-1H-imidazol-4-yl)-5-(trifluoromethyl)pyrimidin-2-amine]
CS(=O)(=O)N1CCC(Nc2ncc(C(F)(F)F)c(-c3cn(-c4cnccc4C(F)(F)F)cn3)n2)CC1 [Example 66, N-(1-(Methylsulfonyl)piperidin-4-yl)-5-(trifluoromethyl)-4-(1-(4-(trifluoromethyl)pyridin-3-yl)-1H-imidazol-4-yl)pyrimidin-2-amine]
Cc1nc(-c2nc(NC3CCN(S(C)(=O)=O)CC3)ncc2C(F)(F)F)cn1-c1ccc(N2CCN(C)C(=O)C2)cc1F [Example 108, 4-(3-Fluoro-4-(2-methyl-4-(2-((1-(methylsulfonyl)-piperidin-4-yl)-amino)-5-(trifluoro-methyl)pyrimidin-4-yl)-1H-imidazol-1-yl)phenyl)-1-methylpiperazin-2-one]
CN1CCN(Cc2cc(F)c(-n3cnc(-c4nc(NC5CCN(S(C)(=O)=O)CC5)ncc4C(F)(F)F)c3)c(F)c2)CC1 [Example 352, 4-(1-(2,6-Difluoro-4-((4-methylpiperazin-1-yl)methyl)phenyl)-1H-imidazol-4-yl)-N-(1-(methylsulfonyl)piperidin-4-yl)-5-(trifluoromethyl)pyrimidin-2-amine]
CS(=O)(=O)N1CCC(Nc2ncc(C(F)(F)F)c(-c3cn(-c4ccc(CCN5CCCC5)cc4C#N)cn3)n2)CC1 [Example 434, 2-(4-(2-((1-(Methylsulfonyl)piperidin-4-yl)amino)-5-(trifluoromethyl)pyrimidin-4-yl)-1H-imidazol-1-yl)-5-(2-(pyrrolidin-1-yl)ethyl)benzonitrile]
Cn1ncnc1-c1ccc(-n2cnc(-c3nc(NC4CCN(S(C)(=O)=O)CC4)ncc3C(F)(F)F)c2)c(C#N)c1 [Example 125, 5-(1-Methyl-1H-1,2,4-triazol-5-yl)-2-(4-(2-((1-(methylsulfonyl)piperidin-4-yl)amino)-5-(trifluoromethyl)pyrimidin-4-yl)-1H-imidazol-1-yl)benzonitrile]
Cc1nc(-c2nc(NC3CCN(S(C)(=O)=O)CC3)ncc2C(F)(F)F)cn1-c1ccc(C2CN(C)C2)cc1F [Example 417, 4-(1-(2-Fluoro-4-(1-methylazetidin-3-yl)phenyl)-2-methyl-1H-imidazol-4-yl)-N-(1-(methylsulfonyl)piperidin-4-yl)-5-(trifluoromethyl)pyrimidin-2-amine]
CS(=O)(=O)N1CCC(Nc2ncc(C(F)(F)F)c(-c3cn(-c4cccc(C#N)c4Cl)cn3)n2)CC1 [Example 58, 2-Chloro-3-(4-(2-((1-(methylsulfonyl)piperidin-4-yl)amino)-5-(trifluoromethyl)pyrimidin-4-yl)-1H-imidazol-1-yl)benzonitrile]
CCc1ccc(-n2cnc(-c3nc(NC4CCN(S(C)(=O)=O)CC4)ncc3C(F)(F)F)c2)c(C(F)(F)F)n1 [Example 95, 4-(1-(6-Ethyl-2-(trifluoromethyl)pyridin-3-yl)-1H-imidazol-4-yl)-N-(1-(methylsulfonyl)piperidin-4-yl)-5-(trifluoromethyl) pyrimidin-2-amine]
Cc1nc(-c2nc(NC3CCN(S(C)(=O)=O)CC3)ncc2C(F)(F)F)cn1-c1ccc(N2CCN(C)CC2)cc1F [Example 103, 4-(1-(2-Fluoro-4-(4-methylpiperazin-1-yl)phenyl)-2-methyl-1H-imidazol-4-yl)-N-(1-(methylsulfonyl)piperidin-4-yl)-5-(trifluoromethyl)pyrimidin-2-amine]
Cc1nc(-c2nc(N[C@H]3CCN(S(C)(=O)=O)C[C@H]3F)ncc2C(F)(F)F)cn1-c1ccc(N2CCC(N(C)C)CC2)cc1F [Example 118, 4-(1-(4-(4-(Dimethylamino)piperidin-1-yl)-2-fluorophenyl)-2-methyl-1H-imidazol-4-yl)-N-((3R,4S)-3-fluoro-1-(methylsulfonyl)piperidin-4-yl)-5-(trifluoromethyl)pyrimidin-2-amine]
CS(=O)(=O)N1CCC(Nc2ncc(C(F)(F)F)c(-c3cn(-c4cccc(C(O)C5CC5)c4Cl)cn3)n2)CC1 (stereo not shown) [Example 86, (2-chloro-3-(4-(2-((1-(methylsulfonyl)piperidin-4-yl)amino)-5-(trifluoromethyl)pyrimidin-4-yl)-1H-imidazol-1-yl)phenyl)(cyclopropyl)methanol]
CN1CCN(Cc2ccc(-n3cnc(-c4nc(NC5CCN(S(C)(=O)=O)CC5)ncc4C(F)(F)F)c3)c(C#N)c2)CC1 [Example 344, 5-((4-Methylpiperazin-1-yl)methyl)-2-(4-(2-((1-(methylsulfonyl)piperidin-4-yl)amino)-5-(trifluoromethyl)pyrimidin-4-yl)-1H-imidazol-1-yl)benzonitrile]
Cc1nn(C)cc1-n1cnc(-c2nc(NC3CCN(S(C)(=O)=O)CC3)ncc2C(F)(F)F)c1 [Example 169, 4-(1-(1,3-Dimethyl-1H-pyrazol-4-yl)-1H-imidazol-4-yl)-N-(1-(methylsulfonyl)piperidin-4-yl)-5-(trifluoromethyl)pyrimidin-2-amine]
COc1ccc(-n2cnc(-c3nc(N[C@H]4CCN(S(C)(=O)=O)C[C@H]4F)ncc3C(F)(F)F)c2)c(C#N)n1 [Example 52, 3-(4-(2-(((3R,4S)-3-Fluoro-1-(methylsulfonyl)piperidin-4-yl)amino)-5-(trifluoromethyl)pyrimidin-4-yl)-1H-imidazol-1-yl)-6-methoxypicolinonitrile]
Cc1nc(-c2nc(NC3CCN(S(C)(=O)=O)CC3)ncc2C(F)(F)F)cn1-c1ccc(C2CNC2)cc1F [Example 160, 4-(1-(4-(Azetidin-3-yl)-2-fluorophenyl)-2-methyl-1H-imidazol-4-yl)-N-(1-(methylsulfonyl)piperidin-4-yl)-5-(trifluoromethyl)pyrimidin-2-amine]
